This passage reports IC50 results from US20260042774A1, “CAMPTOTHECIN-7-ETHYLAMINE DERIVATIVE, PREPARATION METHOD THEREFOR, AND USE THEREOF” (HANGZHOU ADCORIS BIOPHARMA CO., LTD, priority 2022, published 2026).

Holding throughout (format): cell-based
For assay [1], the system named is Human esophageal cancer cells OE33. The experiment in a line: Tumor cell growth inhibitory activity (CCK-8), OE33. To be noted: read-out: IC50 (nM) for inhibiting the growth of tumor cells, OE33; OE33 cells, 72 h incubation, CCK-8. On the procedure: (§1) Human esophageal cancer cells OE33 (human breast adenocarcinoma cells SK-BR-3, or human gastric cancer cells NCI-N87) was cultured in RPMI1640 (Cellmax) supplemented with 10% fetal bovine serum (Cellmax). Cells in the exponential growth phase were diluted to a concentration of 1×10^5 cells/mL by culture medium and added to 96-well cell culture plates at 100 μL per well, then returned back and incubated overnight in a 37° C. incubator with 5% CO2. On the following day, the compounds were diluted to concentrations of 10000 nM, 2000 nM, 400 nM, 80 nM, 16 nM, 3.2 nM, 0.64 nM, and 0.13 nM by culture medium and the diluted compounds were added to the 96-well cell culture plates at 2 μL per well, with three replicate wells for each concentration. Negative control and blank control groups without addition of compounds were added with 2 μL of the dilution liquid per well. After the addition of the compounds, the plates were returned back to the 37° C. incubator with 5% CO2 to continue the incubation for 72 h. After the incubation, the cell culture plates were removed, and the culture medium was aspirated using a pipette. Then, 100 μL of culture medium containing 10% CCK-8 was added to each well, and the plates were incubated at 37° C. for 3 h. After the incubation, the plates were removed, kept in the dark, and placed in an ELISA plate. Absorbance was measured at 630 nm as the reference wavelength and 450 nm as the test wavelength. The IC50 values (Table 2) were calculated using the four-parameter logistic regression method in GraphPad.

Assay [2] has as its system human breast adenocarcinoma cells SK-BR-3. The assay can be described thus: Tumor cell growth inhibitory activity (CCK-8), SK-BR-3. To be noted: read-out: IC50 (nM) for inhibiting the growth of tumor cells, SK-BR-3; SK-BR-3 cells, 72 h incubation, CCK-8. On the procedure: as §1
The test system of assay [3] is human gastric cancer cells NCI-N87. The experiment in a line: Tumor cell growth inhibitory activity (CCK-8), NCI-N87. To be noted: read-out: IC50 (nM) for inhibiting the growth of tumor cells, NCI-N87; NCI-N87 cells, 72 h incubation, CCK-8. On the procedure: as §1
Assay [4] has as its system NCI-H1975. The assay can be described thus: Tumor cell growth inhibitory activity, NCI-H1975. To be noted: Homo sapiens, NCI-H1975, read-out: IC50 (nM) for inhibiting the growth of tumor cells, NCI-H1975, NCI-H1975 cells.
Assay [5] concerns MDA-MB-231. The experiment in a line: Tumor cell growth inhibitory activity, MDA-MB-231. Particulars: Homo sapiens, MDA-MB-231, read-out: IC50 (nM) for inhibiting the growth of tumor cells, MDA-MB-231, MDA-MB-231 cells.

A word on the IC50: it is the midpoint of a concentration-inhibition curve.

With `CC[C@@]1(O)C(=O)OCc2c1cc1n(c2=O)Cc2c-1nc1cc3c(cc1c2CCNCCOC)OCO3` [Compound 17, 7-(2-(2-Methoxyethyl)amino)ethyl-10,11-methylenedioxycamptothecin], the half-maximal inhibitory concentration (IC50) is 2.49 nM in assay [1]; 6.53 nM in assay [2]; 0.7 nM in assay [3]; 9.09 nM in assay [4]; 103 nM in assay [5].
